Article PMC7265341, “Quantifying CDK inhibitor selectivity in live cells” (Nature Communications, 2020)
Where two headings read alike, the source gives them in different places.

Legend:
CDK12/Cyclin K = CDK12/Cyclin K (Homo sapiens, UniProt Q9NYV4); experiment: NanoBRET live-cell target engagement, CDK12-NanoLuc/Cyclin K in HEK-293; assay type: binding; conditions: CDK12/K, read-out: Inhibition at 10µM (%)
CDK7 = CDK7 (Homo sapiens, UniProt P50613); experiment: NanoBRET live-cell target engagement, NanoLuc-CDK7 in HEK-293; assay type: binding; conditions: CDK7, read-out: Inhibition at 10µM (%)
CDK17/Cyclin Y = CDK17/Cyclin Y (Homo sapiens, UniProt Q00537); experiment: NanoBRET live-cell target engagement, CDK17-NanoLuc/Cyclin Y in HEK-293; assay type: binding; conditions: CDK17/Y, read-out: Inhibition at 10µM (%)
CDK11B/Cyclin L2 = CDK11B/Cyclin L2 (Homo sapiens, UniProt P21127); experiment: NanoBRET live-cell target engagement, CDK11B-NanoLuc/Cyclin L2 in HEK-293; assay type: binding; conditions: CDK11b/L2, read-out: Inhibition at 10µM (%)
CDK1/Cyclin E1 = CDK1/Cyclin E1 (Homo sapiens, UniProt P06493); experiment: NanoBRET live-cell target engagement, CDK1-NanoLuc/Cyclin E1 in HEK-293; assay type: binding; conditions: CDK1/E1, read-out: Inhibition at 10µM (%)
CDK15/Cyclin Y = CDK15/Cyclin Y (Homo sapiens, UniProt Q96Q40); experiment: NanoBRET live-cell target engagement, NanoLuc-CDK15/Cyclin Y in HEK-293; assay type: binding; conditions: CDK15/Y, read-out: Inhibition at 10µM (%)
CDK8/Cyclin C = CDK8/Cyclin C (Homo sapiens, UniProt P49336); experiment: NanoBRET live-cell target engagement, NanoLuc-CDK8/Cyclin C in HEK-293; assay type: binding; conditions: for IC50: CDK8/C; for inhibition at 10 µM: read-out: Inhibition at 10µM (%), CDK8/C
CDK9/Cyclin K = CDK9/Cyclin K (Homo sapiens, UniProt P50750); experiment: NanoBRET live-cell target engagement, NanoLuc-CDK9/Cyclin K in HEK-293; assay type: binding; conditions: CDK9/K, read-out: Inhibition at 10µM (%)
CDK18/Cyclin Y = CDK18/Cyclin Y (Homo sapiens, UniProt Q07002); experiment: NanoBRET live-cell target engagement, CDK18-NanoLuc/Cyclin Y in HEK-293; assay type: binding; conditions: CDK18/Y, read-out: Inhibition at 10µM (%)
CDK5/CDK5R1 = CDK5/CDK5R1 (Homo sapiens, UniProt Q00535); experiment: NanoBRET live-cell target engagement, CDK5-NanoLuc/CDK5R1 in HEK-293; assay type: binding; conditions: CDK5/CDK5R1, read-out: Inhibition at 10µM (%)
CDK6/Cyclin D1 = CDK6/Cyclin D1 (Homo sapiens, UniProt Q00534); experiment: NanoBRET live-cell target engagement, NanoLuc-CDK6/Cyclin D1 in HEK-293; assay type: binding; conditions: CDK6/D1, read-out: Inhibition at 10µM (%)
CDK14/Cyclin Y = CDK14/Cyclin Y (Homo sapiens, UniProt O94921); experiment: NanoBRET live-cell target engagement, CDK14-NanoLuc/Cyclin Y in HEK-293; assay type: binding; conditions: CDK14/Y, read-out: Inhibition at 10µM (%)
CDK19/Cyclin C = CDK19/Cyclin C (Homo sapiens, UniProt Q9BWU1); experiment: NanoBRET live-cell target engagement, NanoLuc-CDK19/Cyclin C in HEK-293; conditions: for IC50: IC50 (nM), CDK19/C; for inhibition at 10 µM: read-out: Inhibition at 10µM (%), CDK19/C
CDK4/Cyclin D1 = CDK4/Cyclin D1 (Homo sapiens, UniProt P11802); experiment: NanoBRET live-cell target engagement, NanoLuc-CDK4/Cyclin D1 in HEK-293; assay type: binding; conditions: CDK4/D1, read-out: Inhibition at 10µM (%)
CDK10/Cyclin L2 = CDK10/Cyclin L2 (Homo sapiens, UniProt Q15131); experiment: NanoBRET live-cell target engagement, CDK10-NanoLuc/Cyclin L2 in HEK-293; conditions: read-out: Inhibition at 10µM (%), CDK10/L2
CDK16/Cyclin Y = CDK16/Cyclin Y (Homo sapiens, UniProt Q00536); experiment: NanoBRET live-cell target engagement, CDK16-NanoLuc/Cyclin Y in HEK-293; assay type: binding; conditions: CDK16/Y, read-out: Inhibition at 10µM (%)
CDK11A/Cyclin L2 = biological target: T1, CDK11A/Cyclin L2 (Homo sapiens, UniProt Q9UQ88); experiment: NanoBRET live-cell target engagement, CDK11A-NanoLuc/Cyclin L2 in HEK-293; assay type: binding; conditions: CDK11a/L2, read-out: Inhibition at 10µM (%)
T1 sequence (Q9UQ88 1-783): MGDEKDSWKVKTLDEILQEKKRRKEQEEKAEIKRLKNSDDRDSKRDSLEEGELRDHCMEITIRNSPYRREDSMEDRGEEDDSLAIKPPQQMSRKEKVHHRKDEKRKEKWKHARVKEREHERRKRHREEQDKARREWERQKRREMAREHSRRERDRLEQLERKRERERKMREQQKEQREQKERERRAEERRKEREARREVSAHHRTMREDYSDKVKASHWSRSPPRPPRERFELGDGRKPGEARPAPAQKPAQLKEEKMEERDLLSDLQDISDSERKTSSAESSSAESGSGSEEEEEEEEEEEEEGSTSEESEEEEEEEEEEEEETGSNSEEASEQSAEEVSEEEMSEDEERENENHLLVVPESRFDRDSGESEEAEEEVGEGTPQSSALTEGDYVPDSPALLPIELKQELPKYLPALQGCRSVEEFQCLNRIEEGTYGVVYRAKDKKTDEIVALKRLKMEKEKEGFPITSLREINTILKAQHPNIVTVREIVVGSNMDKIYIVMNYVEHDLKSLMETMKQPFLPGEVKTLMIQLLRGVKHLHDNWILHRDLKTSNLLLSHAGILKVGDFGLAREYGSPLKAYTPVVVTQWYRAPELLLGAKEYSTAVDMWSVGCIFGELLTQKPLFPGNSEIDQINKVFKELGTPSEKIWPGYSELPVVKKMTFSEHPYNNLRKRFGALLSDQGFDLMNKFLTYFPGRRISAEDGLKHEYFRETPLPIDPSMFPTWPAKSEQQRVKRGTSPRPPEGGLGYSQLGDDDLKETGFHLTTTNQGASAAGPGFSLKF

CDK13/Cyclin K = CDK13/Cyclin K (Homo sapiens, UniProt Q14004); experiment: NanoBRET live-cell target engagement, CDK13-NanoLuc/Cyclin K in HEK-293; assay type: binding; conditions: CDK13/K, read-out: Inhibition at 10µM (%)
CDK20/Cyclin H = CDK20/Cyclin H (Homo sapiens, UniProt Q8IZL9); experiment: NanoBRET live-cell target engagement, NanoLuc-CDK20/Cyclin H in HEK-293; assay type: binding; conditions: CDK20/H, read-out: Inhibition at 10µM (%)

CDK10/Cyclin L2, sequence (Q15131 whole entry): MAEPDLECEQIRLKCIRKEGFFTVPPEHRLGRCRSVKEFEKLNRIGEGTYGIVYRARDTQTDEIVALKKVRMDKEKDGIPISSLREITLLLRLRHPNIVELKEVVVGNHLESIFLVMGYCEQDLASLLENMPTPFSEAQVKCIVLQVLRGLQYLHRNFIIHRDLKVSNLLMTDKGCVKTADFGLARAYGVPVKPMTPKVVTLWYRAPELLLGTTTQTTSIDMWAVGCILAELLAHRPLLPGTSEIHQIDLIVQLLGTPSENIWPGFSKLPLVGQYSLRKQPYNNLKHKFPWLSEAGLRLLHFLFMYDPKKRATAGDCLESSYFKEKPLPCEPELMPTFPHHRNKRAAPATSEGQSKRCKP
CDK18/Cyclin Y, sequence (Q07002 whole entry): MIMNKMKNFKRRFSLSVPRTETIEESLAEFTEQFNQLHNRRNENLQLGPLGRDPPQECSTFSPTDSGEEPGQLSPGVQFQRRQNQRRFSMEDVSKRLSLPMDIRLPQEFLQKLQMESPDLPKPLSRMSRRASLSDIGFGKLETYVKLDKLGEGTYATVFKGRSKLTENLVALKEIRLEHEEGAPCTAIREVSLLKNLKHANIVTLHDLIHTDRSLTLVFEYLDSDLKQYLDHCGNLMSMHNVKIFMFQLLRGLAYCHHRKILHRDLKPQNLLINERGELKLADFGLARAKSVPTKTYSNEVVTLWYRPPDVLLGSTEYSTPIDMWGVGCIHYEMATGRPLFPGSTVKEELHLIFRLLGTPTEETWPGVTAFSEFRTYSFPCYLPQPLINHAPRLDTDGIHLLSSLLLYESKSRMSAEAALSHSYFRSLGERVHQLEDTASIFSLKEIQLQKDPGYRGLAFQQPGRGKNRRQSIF
CDK18/Cyclin Y, sequence (Q8ND76 whole entry partner): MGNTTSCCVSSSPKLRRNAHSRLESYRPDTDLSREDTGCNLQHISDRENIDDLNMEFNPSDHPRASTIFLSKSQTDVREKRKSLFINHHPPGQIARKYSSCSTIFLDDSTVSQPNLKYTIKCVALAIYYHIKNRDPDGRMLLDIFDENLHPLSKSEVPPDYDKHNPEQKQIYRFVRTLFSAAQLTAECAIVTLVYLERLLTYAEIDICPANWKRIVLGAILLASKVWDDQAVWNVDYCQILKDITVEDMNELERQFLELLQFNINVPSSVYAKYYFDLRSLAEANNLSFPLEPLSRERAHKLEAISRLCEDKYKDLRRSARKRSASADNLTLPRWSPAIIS
CDK15/Cyclin Y, sequence (Q96Q40 whole entry): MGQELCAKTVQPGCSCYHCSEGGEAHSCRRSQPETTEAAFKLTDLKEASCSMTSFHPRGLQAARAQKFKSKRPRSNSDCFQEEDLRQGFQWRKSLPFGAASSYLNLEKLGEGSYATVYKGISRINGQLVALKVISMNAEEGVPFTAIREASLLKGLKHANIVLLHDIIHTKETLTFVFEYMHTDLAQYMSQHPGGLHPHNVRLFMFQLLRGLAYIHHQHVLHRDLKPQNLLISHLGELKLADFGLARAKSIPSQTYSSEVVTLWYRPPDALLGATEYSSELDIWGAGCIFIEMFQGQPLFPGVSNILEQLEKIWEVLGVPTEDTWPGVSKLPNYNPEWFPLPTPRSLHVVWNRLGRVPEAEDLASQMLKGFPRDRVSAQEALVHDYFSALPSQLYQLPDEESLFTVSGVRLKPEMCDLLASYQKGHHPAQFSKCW
CDK15/Cyclin Y, sequence (Q8ND76 whole entry partner): as the sequence (Q8ND76 whole entry partner) above
CDK12/Cyclin K, sequence (Q9NYV4 1-1481 isoform Q9NYV4-2): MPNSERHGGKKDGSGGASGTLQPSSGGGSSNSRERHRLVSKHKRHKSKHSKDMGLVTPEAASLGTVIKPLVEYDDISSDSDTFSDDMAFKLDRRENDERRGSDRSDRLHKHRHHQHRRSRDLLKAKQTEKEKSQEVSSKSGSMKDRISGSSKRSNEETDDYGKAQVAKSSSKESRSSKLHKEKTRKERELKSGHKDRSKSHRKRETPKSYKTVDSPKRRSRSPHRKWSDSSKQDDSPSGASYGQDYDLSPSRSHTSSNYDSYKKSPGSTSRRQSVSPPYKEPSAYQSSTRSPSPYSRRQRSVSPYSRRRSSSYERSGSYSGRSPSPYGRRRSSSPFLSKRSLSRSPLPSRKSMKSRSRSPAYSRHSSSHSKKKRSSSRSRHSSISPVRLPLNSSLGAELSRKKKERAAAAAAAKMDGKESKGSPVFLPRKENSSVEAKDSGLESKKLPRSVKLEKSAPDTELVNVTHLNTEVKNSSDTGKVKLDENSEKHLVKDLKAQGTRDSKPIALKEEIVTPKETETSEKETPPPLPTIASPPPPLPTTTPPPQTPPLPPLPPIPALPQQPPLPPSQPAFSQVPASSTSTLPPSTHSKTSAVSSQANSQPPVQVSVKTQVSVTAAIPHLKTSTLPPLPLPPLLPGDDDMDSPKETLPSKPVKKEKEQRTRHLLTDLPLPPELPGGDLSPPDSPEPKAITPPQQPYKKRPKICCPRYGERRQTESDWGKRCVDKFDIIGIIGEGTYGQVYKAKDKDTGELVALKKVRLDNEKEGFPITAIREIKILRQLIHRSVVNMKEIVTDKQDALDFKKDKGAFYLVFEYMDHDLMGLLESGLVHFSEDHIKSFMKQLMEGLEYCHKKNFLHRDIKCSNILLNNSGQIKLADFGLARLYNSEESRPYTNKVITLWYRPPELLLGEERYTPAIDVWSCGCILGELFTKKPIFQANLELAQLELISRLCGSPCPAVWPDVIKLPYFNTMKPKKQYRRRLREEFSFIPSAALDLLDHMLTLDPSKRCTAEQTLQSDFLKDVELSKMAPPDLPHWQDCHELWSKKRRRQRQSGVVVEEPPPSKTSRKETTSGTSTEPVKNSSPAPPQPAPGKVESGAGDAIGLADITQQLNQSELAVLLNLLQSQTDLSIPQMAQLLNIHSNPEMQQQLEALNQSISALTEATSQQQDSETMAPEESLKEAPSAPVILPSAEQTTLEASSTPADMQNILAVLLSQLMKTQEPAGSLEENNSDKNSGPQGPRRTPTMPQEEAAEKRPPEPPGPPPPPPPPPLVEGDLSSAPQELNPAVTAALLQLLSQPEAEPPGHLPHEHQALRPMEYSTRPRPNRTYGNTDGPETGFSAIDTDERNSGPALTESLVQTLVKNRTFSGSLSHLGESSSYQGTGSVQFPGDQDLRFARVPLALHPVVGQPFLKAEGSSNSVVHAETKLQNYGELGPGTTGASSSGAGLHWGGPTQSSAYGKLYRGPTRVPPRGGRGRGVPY
CDK12/Cyclin K, sequence (O75909 whole entry partner): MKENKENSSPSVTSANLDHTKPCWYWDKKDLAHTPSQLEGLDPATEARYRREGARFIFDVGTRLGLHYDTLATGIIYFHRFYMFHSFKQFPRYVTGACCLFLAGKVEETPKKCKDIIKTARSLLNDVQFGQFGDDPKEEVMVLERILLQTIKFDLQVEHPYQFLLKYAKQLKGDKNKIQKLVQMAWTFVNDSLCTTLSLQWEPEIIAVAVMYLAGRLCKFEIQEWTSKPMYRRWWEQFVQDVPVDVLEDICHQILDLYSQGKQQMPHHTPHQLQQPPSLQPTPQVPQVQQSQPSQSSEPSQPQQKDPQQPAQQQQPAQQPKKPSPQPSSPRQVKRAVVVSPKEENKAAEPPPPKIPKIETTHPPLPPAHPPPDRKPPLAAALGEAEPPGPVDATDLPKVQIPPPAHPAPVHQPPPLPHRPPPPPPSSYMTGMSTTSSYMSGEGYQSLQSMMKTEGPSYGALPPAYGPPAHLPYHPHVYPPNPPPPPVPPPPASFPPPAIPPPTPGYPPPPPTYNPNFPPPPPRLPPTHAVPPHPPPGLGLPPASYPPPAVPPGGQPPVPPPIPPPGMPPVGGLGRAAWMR
CDK11B/Cyclin L2, sequence (P21127 1-782 isoform P21127-2): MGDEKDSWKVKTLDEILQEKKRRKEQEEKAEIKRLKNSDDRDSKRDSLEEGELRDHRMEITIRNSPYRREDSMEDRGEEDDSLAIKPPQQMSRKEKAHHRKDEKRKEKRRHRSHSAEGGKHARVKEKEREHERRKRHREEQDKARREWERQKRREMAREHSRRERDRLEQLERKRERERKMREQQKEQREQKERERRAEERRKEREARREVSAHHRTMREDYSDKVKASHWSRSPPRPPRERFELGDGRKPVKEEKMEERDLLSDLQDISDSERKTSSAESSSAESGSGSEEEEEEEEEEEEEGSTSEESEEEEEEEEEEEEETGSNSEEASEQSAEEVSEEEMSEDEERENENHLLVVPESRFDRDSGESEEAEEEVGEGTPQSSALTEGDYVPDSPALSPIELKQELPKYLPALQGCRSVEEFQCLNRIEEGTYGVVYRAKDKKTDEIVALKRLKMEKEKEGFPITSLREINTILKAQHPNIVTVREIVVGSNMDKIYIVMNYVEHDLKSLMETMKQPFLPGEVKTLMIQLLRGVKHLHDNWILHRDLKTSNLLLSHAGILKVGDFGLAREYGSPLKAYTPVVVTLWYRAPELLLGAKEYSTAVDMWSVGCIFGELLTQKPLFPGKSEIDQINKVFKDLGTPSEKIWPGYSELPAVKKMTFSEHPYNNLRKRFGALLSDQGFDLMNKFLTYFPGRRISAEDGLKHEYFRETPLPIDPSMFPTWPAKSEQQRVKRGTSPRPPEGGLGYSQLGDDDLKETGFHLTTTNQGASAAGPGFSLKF
CDK14/Cyclin Y, sequence (O94921 whole entry): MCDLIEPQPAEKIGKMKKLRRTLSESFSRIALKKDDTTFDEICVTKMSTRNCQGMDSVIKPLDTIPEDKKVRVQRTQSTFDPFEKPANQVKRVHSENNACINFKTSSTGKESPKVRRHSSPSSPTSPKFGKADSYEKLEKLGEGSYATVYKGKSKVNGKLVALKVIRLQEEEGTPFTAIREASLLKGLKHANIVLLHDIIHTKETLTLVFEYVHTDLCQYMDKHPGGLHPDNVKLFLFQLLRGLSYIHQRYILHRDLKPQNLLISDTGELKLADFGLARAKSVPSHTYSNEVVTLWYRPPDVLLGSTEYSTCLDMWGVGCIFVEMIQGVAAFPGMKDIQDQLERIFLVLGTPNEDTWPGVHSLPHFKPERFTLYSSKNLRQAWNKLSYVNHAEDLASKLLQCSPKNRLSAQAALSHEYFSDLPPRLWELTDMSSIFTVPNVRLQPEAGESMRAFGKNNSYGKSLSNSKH
CDK14/Cyclin Y, sequence (Q8ND76 whole entry partner): as the sequence (Q8ND76 whole entry partner) above

## Cn1cc(-c2ccc(-c3cncc(Cl)c3N3CCC4(CCNC4=O)CC3)cc2)cn1 [CCT251545]
CDK12/Cyclin K; average
  inhibition at 10 µM: -2.2%
CDK12/Cyclin K; experiment 1
  inhibition at 10 µM: 2.5%
CDK12/Cyclin K; experiment 2
  inhibition at 10 µM: -6.8%
CDK7; average
  inhibition at 10 µM: -8.2%
CDK7; experiment 1
  inhibition at 10 µM: -5.4%
CDK7; experiment 2
  inhibition at 10 µM: -11.1%
CDK17/Cyclin Y; average
  inhibition at 10 µM: 1.3%
CDK17/Cyclin Y; experiment 1
  inhibition at 10 µM: 5.9%
CDK17/Cyclin Y; experiment 2
  inhibition at 10 µM: -3.2%
CDK11B/Cyclin L2; average
  inhibition at 10 µM: -1%
CDK11B/Cyclin L2; experiment 1
  inhibition at 10 µM: -3.6%
CDK11B/Cyclin L2; experiment 2
  inhibition at 10 µM: 1.7%
CDK1/Cyclin E1; average
  inhibition at 10 µM: 15.4%
CDK1/Cyclin E1; experiment 1
  inhibition at 10 µM: 21.3%
CDK1/Cyclin E1; experiment 2
  inhibition at 10 µM: 9.4%
CDK15/Cyclin Y; average
  inhibition at 10 µM: 1.4%
CDK15/Cyclin Y; experiment 1
  inhibition at 10 µM: 2.4%
CDK15/Cyclin Y; experiment 2
  inhibition at 10 µM: 0.46%
CDK8/Cyclin C
  Kd: ≤ 10 nM
CDK8/Cyclin C; IC50 (nM), experiment 1
  IC50: 2 nM
CDK8/Cyclin C; IC50 (nM), experiment 2
  IC50: 2 nM
CDK8/Cyclin C; IC50 (nM), experiment 3
  IC50: 9 nM
CDK8/Cyclin C; IC50 for CDK/cyclin complexes, live HEK-293, 2 h, mean ± S.E.M. (n=3) or mean (n=2)
  IC50: 6 nM
CDK8/Cyclin C; average
  inhibition at 10 µM: 97.8%
CDK8/Cyclin C; experiment 1
  inhibition at 10 µM: 98.8%
CDK8/Cyclin C; experiment 2
  inhibition at 10 µM: 96.9%
CDK9/Cyclin K; average
  inhibition at 10 µM: 15.8%
CDK9/Cyclin K; experiment 1
  inhibition at 10 µM: 9.2%
CDK9/Cyclin K; experiment 2
  inhibition at 10 µM: 22.5%
CDK18/Cyclin Y; average
  inhibition at 10 µM: 10.8%
CDK18/Cyclin Y; experiment 1
  inhibition at 10 µM: 2.3%
CDK18/Cyclin Y; experiment 2
  inhibition at 10 µM: 19.2%
CDK5/CDK5R1; average
  inhibition at 10 µM: 16.2%
CDK5/CDK5R1; experiment 1
  inhibition at 10 µM: 23.2%
CDK5/CDK5R1; experiment 2
  inhibition at 10 µM: 9.2%
CDK6/Cyclin D1; average
  inhibition at 10 µM: -5%
CDK6/Cyclin D1; experiment 1
  inhibition at 10 µM: -11.6%
CDK6/Cyclin D1; experiment 2
  inhibition at 10 µM: 1.5%
CDK14/Cyclin Y; average
  inhibition at 10 µM: -6%
CDK14/Cyclin Y; experiment 1
  inhibition at 10 µM: -5.6%
CDK14/Cyclin Y; experiment 2
  inhibition at 10 µM: -6.4%
CDK19/Cyclin C
  Kd: ≤ 10 nM
CDK19/Cyclin C; experiment 2
  IC50: 1.5 nM
  inhibition at 10 µM: 90.6%
CDK19/Cyclin C; experiment 3
  IC50: 10 nM
CDK19/Cyclin C; average
  inhibition at 10 µM: 94%
CDK19/Cyclin C; experiment 1
  inhibition at 10 µM: 97.3%
CDK4/Cyclin D1; average
  inhibition at 10 µM: 6.9%
CDK4/Cyclin D1; experiment 1
  inhibition at 10 µM: -6.1%
CDK4/Cyclin D1; experiment 2
  inhibition at 10 µM: 19.9%
CDK10/Cyclin L2; average
  inhibition at 10 µM: 6.5%
CDK10/Cyclin L2; experiment 1
  inhibition at 10 µM: -3.1%
CDK10/Cyclin L2; experiment 2
  inhibition at 10 µM: 16.1%
CDK16/Cyclin Y; experiment 1
  inhibition at 10 µM: 1.8%
CDK16/Cyclin Y; experiment 2
  inhibition at 10 µM: -12.1%
CDK11A/Cyclin L2; average
  inhibition at 10 µM: 4.8%
CDK11A/Cyclin L2; experiment 1
  inhibition at 10 µM: -0.8%
CDK11A/Cyclin L2; experiment 2
  inhibition at 10 µM: 10.3%
CDK13/Cyclin K; average
  inhibition at 10 µM: 7.2%
CDK13/Cyclin K; experiment 1
  inhibition at 10 µM: 7.3%
CDK13/Cyclin K; experiment 2
  inhibition at 10 µM: 7.1%
CDK20/Cyclin H; experiment 1
  inhibition at 10 µM: 3.3%
CDK20/Cyclin H; experiment 2
  inhibition at 10 µM: 5.3%
